Experimental data reported in patent publication US20220362122A1, “Hair Treatment Compositions With Amine Derivatives” (ELC Management LLC, priority 2021, published 2022).
Entries after “also recorded” stand apart in the source; their conditions may differ. Where two headings read alike, the source gives them in different places.

Tests used:
[1] = alkalizer composition; 22° C., T-F spindle, 6 rpm
[2] = alkalizer composition
[3] = for Lifting level normalized to NH3•H2O / Relative lifting level in percentage (LVirgin-LAlkalizer)/(LVirgin-LNaOH) / ΔL (change in color lifting) LVirgin-LAlkalizer: single alkalizer compositions, Table 5; for lifting of natural hair color, comparison in words: single alkalizer/oxidizer mixtures; for L Value: single alkalizer composition + volume 40 oxidizer developer on hair tresses, 37° C., 45 minutes, virgin 19
[4] = active component; cited from earlier work
[5] = pH of alkalizer composition
[6] = Tensile strength: break stress of treated hair fibers; conditions: hair fibers after alkalizer composition + oxidant
[7] = system: keratin in hair; assay: DSC analysis: keratin denaturation temperature of treated hair
[8] = system: outer root sheath cells; assay: MultiTox-Fluor Multiplex Cytotoxicity Assay, outer root sheath cells; type: cell-based; conditions: for IC50: greater IC50 = less stress on the cells, unit inferred; for toxicity to the cell, comparison in words: outer root sheath cells
Experimental: (§1) The effects of alkalizer compositions on outer root sheath cells and on keratinocytes was evaluated. The MultiTox-Fluor Multiplex Cytotoxicity Assay (Promega Corp., Madison, Wis.) simultaneously measures two protease activities: one is a marker of cell viability, and the other is a marker of cytotoxicity. In the assays, the responses of outer root sheath cells and keratinocytes to various concentrations of alkalizers were measured, and IC50, the concentration that provokes a mid-height response (midway between the baseline response and maximal response), was determined.

[9] = system: keratinocytes; assay: MultiTox-Fluor Multiplex Cytotoxicity Assay, keratinocytes; type: cell-based; conditions: for toxicity to the cell, comparison in words: keratinocytes
Experimental: as §1

[10] = system: keratin in hair
[11] = single alkalizer compositions, Table 4A
[12] = alkalizer composition: Table 2 base + alkalizer, same molar percentage

Question: With `CN(C)CCCO` [DMAP, 3-Dimethyl-amino-1-propanol] as the molecule, how does the “Viscosity (cP × 10^5)” value [1] read?
Answer: 2.77 cP × 10^5

Question: And the “Alkalinity” value [2]?
Answer: 2.32 mL/g

Question: And the “Lifting level normalized to NH3•H2O” value [3]?
Answer: 0.53

Question: What about the “Relative lifting level in percentage (LVirgin-LAlkalizer)/(LVirgin-LNaOH)” value [3] of the same molecule?
Answer: 45.45%

Question: And the “ΔL (change in color lifting) LVirgin-LAlkalizer” value [3]?
Answer: −8

Question: What about the “lifting of natural hair color, comparison in words” value (shortened to “lifting of natural hair color”) [3] of the same molecule?
Answer: performed significantly less well than ammonium hydroxide

Question: And the pKa [4]?
Answer: 9.27

Question: And the pH [5]?
Answer: 10.58

Question: What about the “break stress / fiber damage, comparison in words” value [6] of the same molecule?
Answer: cause a similar amount of damage or less damage than their primary amine analogs

Question: And the “hair damage / denaturation temperature, comparison in words” value ([7]; DSC, single alkalizer compositions)?
Answer: performed the closest to ammonium hydroxide; also recorded: less damaging to hair than the ammonium hydroxide composition; also recorded: a better performer than ammonia

Question: What about the “Denaturation Temperature (° C.)” value ([7]; single alkalizer composition + volume 40 (12%) oxidizer developer on hair tresses, 37° C., 45 minutes, virgin hair 150.42) of the same molecule?
Answer: 147.80 °C

Question: And the “% Relative damage level compared to NaOH (TVirgin-TAlkalizer)/(TVirgin-TNaOH)” value [7, 11]?
Answer: 18.33%

Question: And the “Damage level normalized to NH3•H2O” value [7, 11]?
Answer: 0.94

Question: What about the “ΔT (change in denaturation temperature) TVirgin-TAlkalizer” value [7, 11] of the same molecule?
Answer: 2.62

Question: With `CCC(N)(CO)CO` [AEPD, 2-Amino-2-ethyl-1,3-propanediol] as the molecule, how does the IC50 [8] read?
Answer: 87 mM

Question: And the “toxicity to the cell, comparison in words” value (“toxicity to the cell” for short) [8]?
Answer: significantly less toxic than ammonium hydroxide

Question: What about the “toxicity to the cell” value [9] of the same molecule?
Answer: significantly less toxic than ammonium hydroxide

Question: And the “Viscosity (cP × 10^5)” value [1]?
Answer: 4.47 cP × 10^5

Question: What about the “Alkalinity” value [2] of the same molecule?
Answer: 2.40 mL/g

Question: And the “% Relative damage level compared to NaOH (TVirgin-TAlkalizer)/(TVirgin-TNaOH)” value [10]?
Answer: 29.18%

Question: What about the “Damage level normalized to NH3•H2O” value [10] of the same molecule?
Answer: 1.49

Question: And the “denaturation temperature in binary combinations, in words” value [10]?
Answer: lowered the denaturation temperature, but only slightly

Question: And the “hair damage / denaturation temperature, comparison in words” value [10]?
Answer: performed significantly better than MEA and AMP

Question: What about the “ΔT (change in denaturation temperature) TVirgin-TAlkalizer” value [10] of the same molecule?
Answer: 4.17

Question: What about the “L* value” ([3]; Table 7 AEPD-NH3 series, mole ratio AEPD/NH3, virgin hair 20.2) of the same molecule?
Answer: 30

Question: What about the “L* value” ([3]; Table 12 AEPD-Tris series, mole ratio AEPD/Tris, virgin hair 20.4) of the same molecule?
Answer: 30.4

Question: And the “L Value” [3]?
Answer: 30

Question: What about the “Lifting level normalized to NH3•H2O” value [3] of the same molecule?
Answer: 0.73

Question: What about the “Relative lifting level in percentage (LVirgin-LAlkalizer)/(LVirgin-LNaOH)” value [3] of the same molecule?
Answer: 62.50%

Question: And the “ΔL (change in color lifting) LVirgin-LAlkalizer” value [3]?
Answer: −11

Question: What about the “lifting of natural hair color” value [3] of the same molecule?
Answer: not quite as good as secondary amine alkalizer, DEA, but close

Question: What about the pH [5, 12] of the same molecule?
Answer: 10.33

Question: For `CC(N)(CO)CO` [AMPD, 2-Amino-2-methyl-1,3-propanediol], which “toxicity to the cell” value [8] is on record?
Answer: significantly less toxic than ammonium hydroxide

Question: And the “toxicity to the cell” value [9]?
Answer: significantly less toxic than ammonium hydroxide

Question: What about the “Viscosity (cP × 10^5)” value [1] of the same molecule?
Answer: 3.84 cP × 10^5

Question: What about the “Alkalinity” value [2] of the same molecule?
Answer: 2.49 mL/g

Question: And the “Damage level normalized to NH3•H2O” value [10]?
Answer: 1.63

Question: And the “ΔT (change in denaturation temperature) TVirgin-TAlkalizer” value [10]?
Answer: 4.54

Question: What about the “Lifting level normalized to NH3•H2O” value [3] of the same molecule?
Answer: 0.87

Question: And the “ΔL (change in color lifting) LVirgin-LAlkalizer” value [3]?
Answer: −13

Question: What about the “lifting of natural hair color” value [3] of the same molecule?
Answer: almost as good as MEA and ammonium hydroxide

Question: And the pH [5]?
Answer: 10.28

Question: With `NCCO` [MEA, monoethanolamine, reference compound] as the molecule, how does the IC50 [8] read?
Answer: 21.4 mM

Question: What about the “toxicity to the cell” value [8] of the same molecule?
Answer: more toxic to the cell than ammonium hydroxide

Question: And the IC50 ([9]; Keratinocyte, greater IC50 = less stress on the cells, unit inferred)?
Answer: 23 mM

Question: What about the “toxicity to the cell” value [9] of the same molecule?
Answer: more toxic to the cell than ammonium hydroxide

Question: What about the “Viscosity (cP × 10^5)” value [1] of the same molecule?
Answer: 3.02 cP × 10^5

Question: And the “Alkalinity” value [2]?
Answer: 2.35 mL/g

Question: What about the “Damage level normalized to NH3•H2O” value [10] of the same molecule?
Answer: 3.03

Question: What about the “ΔT (change in denaturation temperature) TVirgin-TAlkalizer” value [10] of the same molecule?
Answer: 8.46

Question: And the “L Value” [3]?
Answer: 36

Question: And the “ΔL (change in color lifting) LVirgin-LAlkalizer” value [3]?
Answer: −17

Question: And the pH [5, 12]?
Answer: 10.85
